Assay results: ChEMBL document CHEMBL1155569, “Synthesis and structures of regioisomeric hydnocarpin-type flavonolignans” (J Nat Prod, 2000)
Activity calls are given as the source filed them. No cut-off for these calls is given here.

Target: T1, Quinolone resistance protein NorA (Staphylococcus aureus) (UniProt P0A0J7)
T1 sequence (whole entry): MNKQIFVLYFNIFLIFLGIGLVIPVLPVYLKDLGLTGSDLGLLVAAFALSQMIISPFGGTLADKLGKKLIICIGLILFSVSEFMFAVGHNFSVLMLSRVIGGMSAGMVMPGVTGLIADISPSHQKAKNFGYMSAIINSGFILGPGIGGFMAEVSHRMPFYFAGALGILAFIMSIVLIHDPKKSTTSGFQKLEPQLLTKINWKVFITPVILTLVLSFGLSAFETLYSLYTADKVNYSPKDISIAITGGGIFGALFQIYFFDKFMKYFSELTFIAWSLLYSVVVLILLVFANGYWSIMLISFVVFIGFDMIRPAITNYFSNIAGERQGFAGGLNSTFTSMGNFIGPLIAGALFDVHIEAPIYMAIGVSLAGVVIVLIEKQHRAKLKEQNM
Assay: Inhibition of Staphylococcus aureus NorA MDR efflux pump

Activity, active:
COc1cc([C@H]2Oc3c(OC)cc(-c4cc(=O)c5c(O)cc(O)cc5o4)cc3O[C@@H]2CO)ccc1O (racemic), COc1cc([C@H]2Oc3cc(-c4cc(=O)c5c(O)cc(O)cc5o4)cc(OC)c3O[C@@H]2CO)ccc1O (racemic), COc1cc([C@H]2Oc3ccc(-c4cc(=O)c5c(O)cc(O)cc5o4)cc3O[C@@H]2CO)ccc1O (racemic), COc1cc([C@H]2Oc3cc(-c4cc(=O)c5c(O)cc(O)cc5o4)ccc3O[C@@H]2CO)ccc1O (racemic)
